Test results reported in patent publication US8158622B2, “Pyrrolopyridine-2-carboxylic acid amide inhibitors of glycogen phosphorylase” (Prosidion Limited, priority 2003, dated 2012).

Target: T1, Rabbit muscle glycogen phosphorylase a (Oryctolagus cuniculus, UniProt P00489)
T1 construct: purchased Sigma P1261
T1 sequence (P00489 2-843 limits assumed): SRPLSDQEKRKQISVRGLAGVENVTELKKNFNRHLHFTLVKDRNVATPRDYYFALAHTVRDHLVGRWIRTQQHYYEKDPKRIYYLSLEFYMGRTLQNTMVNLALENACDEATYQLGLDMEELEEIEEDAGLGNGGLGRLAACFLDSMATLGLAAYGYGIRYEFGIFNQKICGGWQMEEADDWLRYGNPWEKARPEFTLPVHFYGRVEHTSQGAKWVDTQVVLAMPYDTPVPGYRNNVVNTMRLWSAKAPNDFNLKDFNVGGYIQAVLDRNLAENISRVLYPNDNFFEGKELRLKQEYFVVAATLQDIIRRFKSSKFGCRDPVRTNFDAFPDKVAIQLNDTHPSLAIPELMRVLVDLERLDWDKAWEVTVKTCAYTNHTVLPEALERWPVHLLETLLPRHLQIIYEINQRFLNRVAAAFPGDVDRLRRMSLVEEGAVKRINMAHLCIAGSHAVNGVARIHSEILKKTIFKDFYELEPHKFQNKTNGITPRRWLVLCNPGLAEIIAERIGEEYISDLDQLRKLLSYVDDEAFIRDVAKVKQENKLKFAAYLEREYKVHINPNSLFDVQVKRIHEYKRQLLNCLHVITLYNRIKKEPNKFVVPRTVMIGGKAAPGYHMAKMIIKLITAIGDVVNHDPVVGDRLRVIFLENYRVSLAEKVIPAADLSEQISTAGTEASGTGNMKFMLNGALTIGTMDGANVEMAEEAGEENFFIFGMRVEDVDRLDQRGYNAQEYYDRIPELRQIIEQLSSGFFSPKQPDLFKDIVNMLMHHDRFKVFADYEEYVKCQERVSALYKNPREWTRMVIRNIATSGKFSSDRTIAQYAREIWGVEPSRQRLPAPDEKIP
Assay: Glycogen phosphorylase assay in vitro (reverse direction, malachite green phosphate detection)
Assay type: biochemical
Conditions: 50 mM Hepes pH 7.2, 7.5 mM glucose, 0.5 mM glucose-1-phosphate, 1 mg/mL glycogen, 30° C. for 30 min
Text: α-D-Glucose-1-phosphate (disodium salt), Glycogen, D-Glucose, Malachite Green Hydrochloride, Ammonium Molybdate tetrahydrate, BSA, HEPES and rabbit muscle phosphorylase α (P1261) were purchased from Sigma. All other reagents were analytical grade.
Glycogen Phosphorylase Assay In Vitro:
An assay for glycogen phosphorylase activity in the reverse direction was developed based on the method described by Engers et al., Can. J. Biochem., 1970, 48, 746-754]. Rabbit muscle glycogen phosphorylase a (Sigma) was reconstituted at a stock concentration of 100 μg/mL in 25 mM Tris/HCl. […] in a 96-well plate in a final volume of 100 μL containing 50 mM Hepes pH 7.2, 7.5 mM glucose, 0.5 mM glucose-1-phosphate and 1 mg/mL glycogen. After incubation at 30° C. for 30 min, the inorganic phosphate released from glucose-1-phosphate was measured by the addition of 150 μL of malachite green/molybdate solution prepared as follows: 5 mL of 4.2% ammonium molybdate in 4N HCl, 15 mL of 0.045% malachite green, 50 μL of Tween 20. Following a 30 min incubation at rt, the absorbance was measured at 620 nm. For IC50 determination, 10 μL of a serial dilution of compound (100 μM to 0.004 μM) in DMSO was added to each reaction in duplicate with the equivalent concentration of DMSO added to the control uninhibited reaction. Dose response curves were then obtained by plotting % inhibition versus log10 compound concentration. IC50 is defined as the concentration of compound achieving 50% inhibition under the assay conditions described.

Compound	IC50
CN(C)C(=O)[C@H](Cc1ccccc1)NC(=O)c1cc2ncccc2[nH]1 [Example 24, 1H-Pyrrolo[3,2-b]pyridine-2-carboxylic acid (1-dimethylcarbamoyl-2-(S)-phenylethyl)amide]	≥ 100 µM
COc1ccc2[nH]c(C(=O)N[C@@H](Cc3ccccc3)C(=O)N(C)C)cc2n1 [Example 23, 5-Methoxy-1H-pyrrolo[3,2-b]pyridine-2-carboxylic acid (1-dimethylcarbamoyl-2-(S)-phenylethyl)amide]	≥ 100 µM
O=C(NCCOc1ccccc1)c1cc2ncccc2[nH]1 [Example 25, 1H-Pyrrolo[3,2-b]pyridine-2-carboxylic acid (2-phenoxyethyl)amide]	≥ 100 µM

Second part, the molecule after the results:

IC50	Compound
≥ 100 µM	O=C(NCCNc1ccccc1)c1cc2ncccc2[nH]1 [Example 26, 1H-Pyrrolo[3,2-b]pyridine-2-carboxylic acid (2-phenylaminoethyl)amide]
≥ 100 µM	O=C(NCCN1CCN(Cc2ccccc2)CC1)c1cc2cc(Cl)ncc2[nH]1 [Example 28, 5-Chloro-1H-pyrrolo[2,3-c]pyridine-2-carboxylic acid [2-(4-benzylpiperazin-1-yl)ethyl]amide]
≥ 100 µM	O=C(NCCNCc1ccccc1)c1cc2cc(Cl)ncc2[nH]1 [Example 29, 5-Chloro-1H-pyrrolo[2,3-c]pyridine-2-carboxylic acid (2-benzylaminoethyl)amide]
≥ 100 µM	O=C(NCCNc1ccccc1)c1cc2ccncc2[nH]1 [Example 21, 1H-Pyrrolo[2,3-c]pyridine-2-carboxylic acid (2-phenylaminoethyl)amide]
